Test results from patent US20230144203A1 (SHANGHAI SENHUI MEDICINE CO., LTD., priority 2020, published 2023).
Read-outs that look alike come from different tables or passages of the source.

Legend:
SKBR3 tumor cells = experiment: Test Example 1 in vitro cytotoxic activity screening (CTG); format: cell-based; conditions: for IC50: Homo sapiens, SK-BR-3
Method: (§1) The CTG is used for detecting the ATP content in the experiment, and the survival condition of the tumor cells is reflected. […] The killing effect of the toxin molecule was then assayed according to this condition. 1.2. Selection of cell lines
(§2) According to the purpose of the experiment, two disease models of breast cancer and NSCLC were selected, and SKBR3 tumor cells (HER2+, ATCC, Cat #HTB-30), MDA-MB-468 (HER2-, ATCC, Cat #HTB-132) and A549 (human non-small cell lung cancer cells, ATCC, Cat #CCL-185) were selected for screening.
(§3) 2) Cell plating: A549 cells were digested with trypsin, and the cells were terminated with the above medium, and 4.3×10^5, 7.2×10^5 and 11.5×10^5 cells were added to the medium to give a final volume of 26 mL. 180 μL of cell suspension was added to each well in columns 2 to 11 of a 96-well plate (coming, Cat #3903) to give cell densities of 3K, 5K and 8K per well. Wells in column 12 were filled with 200 μL of culture medium and the remaining wells were filled with PBS. The above operations were repeated on the SKBR3 and MDA-MB-468 cells. The sample was duplicated.
(§4) 2 mM of stock solution (stock diluted 10-fold in DMSO) was prepared in column 1 of drug preparation plate 1, then 10-fold dilution in DMSO by gradient was performed in column 10, and the wells in column 11 were filled with DMSO. 95 μL of corresponding culture solution was added into each well from column 2 to column 11 of the drug preparation plate 2, 5 μL of solution was pipetted from column 2 to column 11 of drug preparation plate 1 to drug preparation plate 2, the solution was mixed well, 20 μL of solution was pipetted, added into the plated cells, and continuously cultured for 3 days and 5 days.
(§5) 4) CTG assay (Cell Titer-Glo™, luminescent cell viability assay, Promega): the cell plates were removed on day 3 and day 5, and balanced to room temperature. 90 μL of CTG was added into each well and reacted at room temperature for 10 min in the dark. The absorption value was read using a microplate reader and IC50 was calculated.

MDA-MB-468 [1] = experiment: as above; format: cell-based; conditions: for IC50: Homo sapiens
Method: as §1, §2, §3, §4, §5

A549 [2] = experiment: as above; format: cell-based, human; conditions: for IC50: Homo sapiens
Method: as §1, §2, §3, §4, §5

A549 [3] = experiment: Test Example 2 in vitro cytotoxic activity screening (CTG); format: cell-based; conditions: for IC50: Homo sapiens
Method: (§6) The CTG is used for detecting the ATP content in the experiment, and the survival condition of the tumor cells is reflected.
(§7) A549, SKBR3 and MDA-MB-468 were digested with trypsin, and each was resuspended in culture medium to a cell density of 2.2×10^4 cells/mL, and 135 μL of cell suspension was added to each well in columns 2 to 11 of a 96-well plate, and column 12 was set as blank control. The cells were incubated in an incubator for 24 h at 37° C. with 5% CO2.
(§8) a) Stock solution preparation: the test compound and positive control drug were dissolved in DMSO to give a stock solution at a concentration of 5 mM.
(§9) b) Drug preparation plate 1: stock solution in column 1 was initially diluted 40-fold, and 3-fold gradient dilutions were performed sequentially in column 2 to column 11. Column 12 was filled with DMSO.
(§10) c) Drug preparation plate 2: 196 μL of the corresponding culture medium was added into columns 2 to 11, and 4 μL of culture medium was pipetted from column 3 to column 12 of drug preparation plate 1 to column 2 to column 11 of drug preparation plate
(§11) 15 μL of culture medium was pipetted from the drug preparation plate 2 and added into the plated cells. The cells were continuously incubated in an incubator for 5 h at 37° C. with 5% CO2.
as §5, with “2.4)” for “4)”, “assay):” for “assay, Promega):”, “removed” for “removed on day 3 and day 5,”, “75” for “90”

MDA-MB-468 [4] = experiment: as above; format: cell-based; conditions: for IC50: Homo sapiens
Method: as §6, §7, §8, §9, §10, §11
as §5, with “2.4)” for “4)”, “assay):” for “assay, Promega):”, “removed” for “removed on day 3 and day 5,”, “75” for “90”

SKBR3 = experiment: as above; format: cell-based; conditions: for IC50: Homo sapiens
Method: as §6, §7, §8, §9, §10, §11
as §5, with “2.4)” for “4)”, “assay):” for “assay, Promega):”, “removed” for “removed on day 3 and day 5,”, “75” for “90”

in vivo = conditions: male, beagle, dog, iv, 0.5 mg/kg
Method: The pharmacokinetic performance in beagles of the compounds of the present disclosure was studied and the pharmacokinetic profile thereof was evaluated.
Male 6 beagles were divided into 2 groups of 3, purchased from Shanghai Medicilon Inc., and subjected to administration test.
Plasma samples were stored in a refrigerator at −80° C. prior to testing. […] The plasma concentration of the test compounds in beagles after drug injection was determined: after administration, 25 μL of beagle plasma at various times after administration was taken, and added with 50 μL (100 ng/mL) of internal standard solution camptothecin (National Institutes for Drug Control) and 200 μL of acetonitrile. The mixture was vortexed for 5 min and centrifuged for 10 min (3700 rpm/min). 3 to 4 μL of the supernatant of the plasma sample was subjected to LC/MS assay (API4000 triple quadrupole tandem mass spectrometer (No. 2), Applied Biosystems, USA; Shimadzu, LC-30AD ultra high performance liquid chromatography system, Shimadzu, Japan.) The analysis was performed.

[5] = MDA-MB-468, CTG, read-out: IC50
[6] = SK-BR-3, SKBR3, CTG, incubated 5 h, read-out: IC50

C=C1C[C@@H]2CC[C@@]34C[C@H]5O[C@H]6[C@@H](O3)[C@H]3O[C@H](CC[C@@H]3O[C@H]6[C@H]5O4)CC(=O)C[C@@H]3[C@@H](OC)[C@@H](C[C@H](O)COC(=O)c4ccc(CO)cc4)O[C@H]3C[C@H]3O[C@@H](CC[C@@H]1O2)C[C@@H](C)C3=C [Compound D-8]
IC50 (SKBR3 tumor cells; SKBR3, CTG, read-out: IC50): 0.33 nM | IC50 (MDA-MB-468 [1]; [5]): 0.843 nM | IC50 (A549 [2]; A549, CTG, read-out: IC50): 0.811 nM

C=C1C[C@@H]2CC[C@@]34C[C@H]5O[C@H]6[C@@H](O3)[C@H]3O[C@H](CC[C@@H]3O[C@H]6[C@H]5O4)CC(=O)C[C@@H]3[C@@H](OC)[C@@H](C[C@@H](CNC(=O)[C@H](O)C4CC4)OC)O[C@H]3C[C@H]3O[C@@H](CC[C@@H]1O2)C[C@@H](C)C3=C [Compound D-3]
IC50 (SKBR3 tumor cells): 1.36 nM | IC50 (MDA-MB-468 [1]; MDA-MB-468): 1.67 nM | IC50 (A549 [2]; A549): 5.14 nM | Maximum inhibition (A549 [3]; A549, CTG, incubated 5 h): 63.03% | IC50 (A549 [3]; A549, 5 h): 2.17 nM | IC50 (MDA-MB-468 [4]; MDA-MB-468, 5 h): 1.98 nM | Maximum inhibition (MDA-MB-468 [4]; MDA-MB-468, CTG, incubated 5 h): 90.94% | IC50 (SKBR3; SK-BR-3, 5 h): 1.18 nM | Maximum inhibition (SKBR3; SKBR3, CTG, incubated 5 h): 96.36%

C=C1C[C@@H]2CC[C@@]34C[C@H]5O[C@H]6[C@@H](O3)[C@H]3O[C@H](CC[C@@H]3O[C@H]6[C@H]5O4)CC(=O)C[C@@H]3[C@@H](OC)[C@@H](C[C@H](O)CN)O[C@H]3C[C@H]3O[C@@H](CC[C@@H]1O2)C[C@@H](C)C3=C [Eribulin, eribulin, reference compound]
concentration at 5 min (in vivo): 0.217 µg/mL | Maximum inhibition (SKBR3 tumor cells; SKBR3, CTG): 94.90% | Maximum inhibition (MDA-MB-468 [1]; MDA-MB-468, CTG): 87.47% | Maximum inhibition (A549 [2]; A549, CTG): 81.50%

C=C1C[C@@H]2CC[C@@]34C[C@H]5O[C@H]6[C@@H](O3)[C@H]3O[C@H](CC[C@@H]3O[C@H]6[C@H]5O4)CC(=O)C[C@@H]3[C@@H](OC)[C@@H](C[C@H](O)COC(=O)C4(O)CC4)O[C@H]3C[C@H]3O[C@@H](CC[C@@H]1O2)C[C@@H](C)C3=C [Compound D-7]
IC50 (SKBR3 tumor cells; SKBR3, CTG, read-out: IC50): 0.481 nM | IC50 (MDA-MB-468 [1]; [5]): 0.903 nM | IC50 (A549 [2]; A549, CTG, read-out: IC50): 1.78 nM

C=C1C[C@@H]2CC[C@@]34C[C@H]5O[C@H]6[C@@H](O3)[C@H]3O[C@H](CC[C@@H]3O[C@H]6[C@H]5O4)CC(=O)C[C@@H]3[C@@H](OC)[C@@H](C[C@H](O)CNC(=O)[C@H](O)C4CC4)O[C@H]3C[C@H]3O[C@@H](CC[C@@H]1O2)C[C@@H](C)C3=C [Compound D-2]
IC50 (SKBR3 tumor cells; SKBR3, CTG, read-out: IC50): 0.839 nM | IC50 (MDA-MB-468 [1]; [5]): 0.909 nM | IC50 (A549 [2]; A549, CTG, read-out: IC50): 3.16 nM

C=C1C[C@@H]2CC[C@]34C[C@@H]5O[C@H]6[C@@H](O3)[C@@H]3O[C@H](CC[C@@H]3O[C@@H]6[C@H]5O4)CC(=O)C[C@@H]3[C@H](OC)[C@@H](C[C@H](O)CNC(=O)CO)O[C@H]3C[C@H]3O[C@@H](CC[C@@H]1O2)C[C@H](C)C3=C [Compound D-4]
IC50 (SKBR3 tumor cells; SKBR3, CTG, read-out: IC50): 1.3 nM | IC50 (MDA-MB-468 [1]; [5]): 1.78 nM | IC50 (A549 [2]; A549, CTG, read-out: IC50): 5.61 nM | Maximum inhibition (A549 [3]; A549, CTG, incubated 5 h): 62.09% | IC50 (A549 [3]; A549, CTG, incubated 5 h, read-out: IC50): 3.08 nM | IC50 (MDA-MB-468 [4]; MDA-MB-468, CTG, incubated 5 h, read-out: IC50): 1.88 nM | Maximum inhibition (MDA-MB-468 [4]; MDA-MB-468, CTG, incubated 5 h): 89.43% | IC50 (SKBR3; [6]): 1.09 nM | Maximum inhibition (SKBR3; SKBR3, CTG, incubated 5 h): 96.85%

C=C1C[C@@H]2CC[C@@]34C[C@H]5O[C@H]6[C@@H](O3)[C@H]3O[C@H](CC[C@@H]3O[C@H]6[C@H]5O4)CC(=O)C[C@@H]3[C@@H](OC)[C@@H](C[C@H](O)COC(=O)[C@H](O)C4CC4)O[C@H]3C[C@H]3O[C@@H](CC[C@@H]1O2)C[C@@H](C)C3=C [Compound D-6]
IC50 (SKBR3 tumor cells; SKBR3, CTG, read-out: IC50): 0.294 nM | IC50 (MDA-MB-468 [1]; [5]): 0.996 nM | IC50 (A549 [2]; A549, CTG, read-out: IC50): 1.85 nM

C=C1C[C@@H]2CC[C@@]34C[C@H]5O[C@H]6[C@@H](O3)[C@H]3O[C@H](CC[C@@H]3O[C@H]6[C@H]5O4)CC(=O)C[C@@H]3[C@@H](OC)[C@@H](C[C@H](O)CNC)O[C@H]3C[C@H]3O[C@@H](CC[C@@H]1O2)C[C@@H](C)C3=C [Compound E-305, reference compound]
Maximum inhibition (A549 [3]; A549, CTG, incubated 5 h): 61.27% | IC50 (A549 [3]; A549, 5 h): 2.1 nM | IC50 (MDA-MB-468 [4]; MDA-MB-468, 5 h): 1.17 nM | Maximum inhibition (MDA-MB-468 [4]; MDA-MB-468, CTG, incubated 5 h): 88.53% | IC50 (SKBR3; [6]): 0.571 nM | Maximum inhibition (SKBR3; SKBR3, CTG, incubated 5 h): 96.42%

C=C1C[C@@H]2CC[C@@]34C[C@H]5O[C@H]6[C@@H](O3)[C@H]3O[C@H](CC[C@@H]3O[C@H]6[C@H]5O4)CC(=O)C[C@@H]3[C@@H](OC)[C@@H](C[C@H](O)CNC(=O)C4(O)CC4)O[C@H]3C[C@H]3O[C@@H](CC[C@@H]1O2)C[C@@H](C)C3=C [Compound D-5]
IC50 (SKBR3 tumor cells; SKBR3, CTG, read-out: IC50): 0.383 nM | IC50 (A549 [2]; A549, CTG, read-out: IC50): 4.02 nM

C=C1C[C@@H]2CC[C@@]34C[C@H]5O[C@H]6[C@@H](O3)[C@H]3O[C@H](CC[C@@H]3O[C@H]6[C@H]5O4)CC(=O)C[C@@H]3[C@@H](OC)[C@@H](C[C@@H](CN)OC)O[C@H]3C[C@H]3O[C@@H](CC[C@@H]1O2)C[C@@H](C)C3=C [Compound D-1]
AUC(0-t) (in vivo; in vivo): 0.433 µg·h/mL | MRT (in vivo; in vivo): 41.1 h | Vd (in vivo; in vivo): 22 L/kg | clearance (in vivo; in vivo): 0.534 L/h/kg | concentration at 5 min (in vivo; in vivo): 0.0821 µg/mL | half-life (in vivo; in vivo): 29.3 h | IC50 (SKBR3 tumor cells): 0.205 nM | Maximum inhibition (SKBR3 tumor cells; SKBR3, CTG): 96.87% | IC50 (MDA-MB-468 [1]; MDA-MB-468): 0.183 nM | Maximum inhibition (MDA-MB-468 [1]; MDA-MB-468, CTG): 88.01% | Maximum inhibition (A549 [2]; A549, CTG): 81.34% | IC50 (A549 [2]; A549): 0.515 nM
